Measurements: patent US20040072750A1, “Compounds and methods for the modulation of CD154” (priority 2001, published 2004)

What was measured:
Type in all cases: cell-based, human
washed platelets [1] = experiment: TRAP6-induced aggregation of washed platelets (aggregometer); details: 1 μM TRAP6; 0.1-1.0 μg/ml TIMP-2 or 5-50 μM TAPI-1
Procedure: (§1) Washed platelets were prepared from blood drawn into ⅙ th volume of ACD containing (85 mM sodium citrate, 111 mM dextrose and 71 mM citric acid) with 0.05 μg/ml PGI2. Collected blood was centrifuged at 160×g for 20 minutes at room temperature (Beckman GP) and the PRP layer was collected. PRP was then centrifuged at 1100×g for 10 minutes to sediment platelets. Platelets were washed twice by resuspending in CGS (13 mM trisodium citrate, 120 mM NaCl, 30 mM Dextrose, pH 7.0) containing 0.05 μg/ml PGI2 for the first wash. The final suspension of platelets (3×10^8/ml) was in Tyrode's Hepes.
a. For platelet aggregation studies, 500 μL of washed platelets were allowed to stir in a Chrono-Log Aggregometer before the addition of 1 μM TRAP6 to initiate aggregation. Subsequent samples included various metalloproteinase inhibitors added to washed platelets before the addition of TRAP6; 0.1-1.0 μg/ml TIMP-2 (Calbiochem) or 5-50 μM TAPI-1 (Peptides International). Aggregation proceeded for 5 minutes and the amplitude of each aggregometer tracing was calculated by Aggro-Link software.

washed platelets [2] = experiment: sCD40L release from TRAP activated, not aggregated washed platelets (ELISA); details: for release of sCD40L from TRAP activated, but not aggregated, platelets: 50 μM, FIG. 3; for release of sCD154 from TRAP-stimulated platelets: 5-50 μM inhibitor, 5 μM TRAP, no rocking
Procedure: as §1, with “⅙^th” for “⅙ th”, “repeat suspending and pelleting” for “resuspending”, “(5×10^8/ml)” for “(3×10^8/ml)”
The release of sCD40L from the activated platelets was determined as follows: 500 μL of washed platelets were gently mixed 5 μM of TRAP and incubated at 37° C. without rocking for 30 min. Under this condition, platelets were activated but not aggregated. 5-50 μM of metalloproteinase inhibitors GM6001 (Galardin, Calbiochem) or TAPI-1 (Peptides International) were added to the washed platelets before the addition of TRAP. Platelets were removed from suspension by centrifugation for 10 minutes at 15,000×g, 4° C. and the resulting supernatants were collected. The levels of sCD154 were measured by ELISA.

washed platelets [3] = experiment: sCD154 release from TRAP6-stimulated washed platelets with rocking (ELISA); details: rocking 30 minutes, 37° C.
Procedure: as §1
b. CD154 determinations were made as follows: Washed platelets were incubated at 37° C. with various concentrations of TIMP-2 and TAPI-1 (see above) while rocking on a Nutator for 30 minutes. Platelets or platelet aggregates were removed from suspension by centrifugation for 10 minutes at 15,000×g, 4° C. and the resulting supernatants were collected. The levels of sCD154 were measured by ELISA.

washed platelets [4] = experiment: Cleavage of CD40L into sCD40L in platelet lysates (immunoblotting); details: TRAP 5 μM; activated or aggregated platelets; FIG. 4
Procedure: Collected blood was centrifuged at 160×g for 20 minutes at room temperature (Beckman GP) and the PRP layer was collected. PRP was then centrifuged at 1100×g for 10 minutes to sediment platelets. Platelets were washed twice by repeat suspending and pelleting in CGS (13 mM trisodium citrate, 120 mM NaCl, 30 mM Dextrose, pH 7.0) containing 0.05 μg/ml PGI2 for the first wash. The final suspension of platelets (5×10^8/ml) was in Tyrode's Hepes.
Cleavage of the full length CD40L (32 kD) yields the 18 kD soluble from (sCD40L). 500 μl of Washed platelets were gently mixed with TRAP (5 μM) to initiate the platelet activation. Metalloproteinase inhibitors GM6001 (50 μM, Calbiochem) or DMSO were added to washed platelets, and incubated at 37° C. with or without rocking for 30 minutes. […] Platelets were removed from suspension by centrifugation for 10 minutes at 15,000×g, 4° C. and the resulting platelet pellets were dissolved in the loading buffer. The proteins in the platelet lysates were resolved with SDS-PAGE, transferred onto nitrocellulose membrane, and blotted with anti-CD40L antibody (MK13A4, Alexis).

CC(C)C[C@H](CC(=O)NO)C(=O)N[C@@H](Cc1ccc2ccccc2c1)C(=O)N[C@@H](C)C(=O)NCCN [TAPI-1, HONHCOCH2CH(CH2CH(CH3)2-CO-NaI-Ala-NHCH2CH2NH2]
inhibited: platelet aggregation induced by sub-optimal concentrations of TRAP6 (washed platelets [1]) | release of sCD40L from TRAP activated, but not aggregated, platelets (washed platelets [2]) | release of sCD154 from TRAP-stimulated platelets (washed platelets [2]) | release of sCD154 from TRAP6-stimulated platelets (washed platelets [3])

CNC(=O)[C@H](Cc1c[nH]c2ccccc12)NC(=O)[C@@H](CC(=O)NO)CC(C)C [GM6001, N-[(2R)-2-(Hydroxamidocarbonylmethyl)-4-methylpentanoyl]-L-tryptophan methylamide]
inhibited: cleavage of the full length CD40L to the 18 kD soluble form (washed platelets [4]) | release of sCD40L from TRAP activated, but not aggregated, platelets (washed platelets [2]) | release of sCD154 from TRAP-stimulated platelets (washed platelets [2])
